Patent US10577332B2, “Tetrazole derivatives” (Hoffmann-La Roche Inc., priority 2015, dated 2020)

Tests used:
human EAAT3 = molecular target: T1, human EAAT3 (Homo sapiens, UniProt P43005); assay: FLIPR Membrane Potential (FMP) assay; assay type: cell-based; conditions: HEK-293 cells stably expressing human EAAT3; antagonist applied 15 min before L-glutamate at EC80; Kb by Cheng-Prusoff from IC50
T1 construct: expressed in transfected cells
T1 sequence (P43005 1-524): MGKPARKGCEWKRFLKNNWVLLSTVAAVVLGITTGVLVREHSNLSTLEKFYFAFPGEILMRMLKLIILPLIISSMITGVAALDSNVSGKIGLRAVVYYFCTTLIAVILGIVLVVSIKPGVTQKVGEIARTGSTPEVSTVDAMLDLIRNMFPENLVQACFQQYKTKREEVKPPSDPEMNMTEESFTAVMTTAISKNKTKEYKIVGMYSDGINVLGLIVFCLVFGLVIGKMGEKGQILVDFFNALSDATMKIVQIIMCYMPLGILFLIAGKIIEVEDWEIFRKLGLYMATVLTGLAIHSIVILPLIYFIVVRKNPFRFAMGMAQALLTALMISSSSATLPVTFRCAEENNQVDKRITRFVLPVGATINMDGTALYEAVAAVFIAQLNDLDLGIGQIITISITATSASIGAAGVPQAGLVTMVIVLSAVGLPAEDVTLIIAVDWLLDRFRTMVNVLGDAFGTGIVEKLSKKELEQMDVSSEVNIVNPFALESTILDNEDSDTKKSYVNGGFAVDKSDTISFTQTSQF
Method: The FLIPR Membrane Potential (FMP) Assay
HEK-293 cells stably expressing human EAAT3 were seeded at 55 000 cells/well in growth medium (DMEM glutamate free (Invitrogen 11960-044), 1% Pen Strep (10 ml/l GIBCO BRL No 15140-023), 10% FCS non dialysed heat inactivated, 5 mg/l puromycin) in poly-D-lysine treated 96-well black microtiter plates with clear-bottom. After 24 h, the growth medium was removed and 100 μl/well of Krebs buffer (140 mM NaCl, 4.7 mM KCl, 2.5 mM CaCl2, 1.2 mM MgCl2, 11 mM HEPES, 10 mM D-glucose, pH=7.4) added. The cells were then loaded by adding 100 μl/well FMP assay dye (FLIPR Membrane Potential assay reagent, Molecular Devices). The 96-well plates were then incubated at 37° C. for 1 h. The depolarization of the cells will cause more dye to enter in the cells, where it will bind to intracellular proteins and lipids and cause an increase in the fluorescence signal. Antagonist potency at human EAAT3 was determined by using L-glutamate as agonist at a concentration which gives 80% of the maximum response. The antagonists were applied 15 min before the application of the agonist L-glutamate. The assays were performed at room temperature and measurements done by using a Fluorometric Imaging Plate Reader (FLIPR, Molecular Devices) and filter #2. Responses were measured as peak increase in fluorescence minus basal (i.e. fluorescence without addition of L-glutamate). Kb was determined using the Cheng-Prusoff equation Kb=IC50/[1+(A/EC50)], where IC50 is the concentration of the antagonist producing 50% inhibition, A is the concentration of the agonist against which the IC50 is being determined (at EC80) and EC50 is the concentration of the agonist producing 50% […].

Row | Kb (human EAAT3) [nM] | melting point [°C] | SMILES
1 | 300 | 89 | CC(C)(CO)NC(=O)c1cc(-c2ccc(Cl)cc2)cc(-n2nnnc2C(F)(F)F)c1 [Example 76, 3-(4-Chlorophenyl)-N-(1-hydroxy-2-methylpropan-2-yl)-5-[5-(trifluoromethyl)-tetrazol-1-yl]-benzamide]
2 | 290 | 240.5 | CC(C)(C)NC(=O)c1cc(-c2ccc(Cl)c(F)c2)cc(-n2nnnc2C(C)(C)C)c1 [Example 105, N-tert-Butyl-3-(5-tert-butyltetrazol-1-yl)-5-(4-chloro-3-fluorophenyl)-benzamide]
3 | 360 | 155.5 | Cc1nnnn1-c1cc(C(=O)NC2(C)CCS(=O)(=O)C2)cc(-c2ccc(Cl)cc2)c1 (racemic) [Example 65, (RS)-3-(4-Chlorophenyl)-N-(3-methyl-1,1-dioxothiolan-3-yl)-5-(5-methyltetrazol-1-yl)-benzamide]
4 | 205 | 107 | CC(C)c1nnnn1-c1cc(C(=O)NC(C)(C)C#N)cc(-c2ccc(Cl)cc2)c1 [Example 101, 3-(4-Chlorophenyl)-N-(2-cyanopropan-2-yl)-5-(5-propan-2-yltetrazol-1-yl)-benzamide]
5 | 180 | 85 | Cc1nnnn1-c1cc(C(=O)NC(C)(C)C2CC2)cc(-c2ccc(Cl)cc2)c1 [Example 83, 3-(4-Chlorophenyl)-N-(2-cyclopropylpropan-2-yl)-5-(5-methyltetrazol-1-yl)-benzamide]
6 | 190 | 241 | CC(C)(C)NC(=O)c1cc(-c2ccc(C(F)(F)F)cc2)cc(-n2nnnc2C(C)(C)C)c1 [Example 104, N-tert-Butyl-3-(5-tert-butyltetrazol-1-yl)-5-[4-(trifluoromethyl)-phenyl]-benzamide]
7 | 89 | 90 | CC(C)c1nnnn1-c1cc(C(=O)NC(C)(C)C)cc(-c2ccc(Cl)cc2)c1 [Example 43, N-tert-Butyl-3-(4-chlorophenyl)-5-(5-propan-2-yltetrazol-1-yl)-benzamide]
8 | 260 | 225.5 | CC(C)(C)NC(=O)c1cc(-c2ccc(F)c(F)c2)cc(-n2nnnc2C(C)(C)C)c1 [Example 106, N-tert-Butyl-3-(5-tert-butyltetrazol-1-yl)-5-(3,4-difluorophenyl)-benzamide]
9 | 370 | 91.5 | Cc1ccc(-c2cc(C(=O)NC(C)(C)C3CC3)cc(-n3nnnc3C(C)(C)C)c2)cc1 [Example 109, 3-(5-tert-Butyltetrazol-1-yl)-N-(2-cyclopropylpropan-2-yl)-5-(4-methylphenyl)-benzamide]
10 | 280 | 223.5 | Cc1ccc(-c2cc(C(=O)NC(C)(C)C(F)(F)F)cc(-n3nnnc3C(C)(C)C)c2)cc1 [Example 117, 3-(5-tert-Butyltetrazol-1-yl)-5-(4-methylphenyl)-N-(1,1,1-trifluoro-2-methylpropan-2-yl)-benzamide]
11 | 340 | 90 | CC(C)c1nnnn1-c1cc(C(=O)NC(C)(C)C(F)(F)F)cc(-c2ccc(Cl)cc2)c1 [Example 52, 3-(4-Chlorophenyl)-5-(5-propan-2-yltetrazol-1-yl)-N-(1,1,1-trifluoro-2-methylpropan-2-yl)-benzamide]
12 | 180 | 74 | CCC(C)(C)NC(=O)c1cc(-c2ccc(F)cc2)cc(-n2nnnc2C2CC2)c1 [Example 68, 3-(5-Cyclopropyltetrazol-1-yl)-5-(4-fluorophenyl)-N-(2-methylbutan-2-yl)-benzamide]
13 | 420 | 90 | CC(C)c1nnnn1-c1cc(C(=O)NC(C)(C)C2CC2)cc(-c2ccc(C(F)(F)F)cc2)c1 [Example 48, N-(2-Cyclopropylpropan-2-yl)-3-(5-propan-2-yltetrazol-1-yl)-5-[4-(trifluoromethyl)phenyl]benzamide]
14 | 350 | 258.5 | CC1(NC(=O)c2cc(-c3ccc(F)cc3)cc(-n3nnnc3C(C)(C)C)c2)CCS(=O)(=O)C1 (racemic) [Example 95, (RS)-3-(5-tert-Butyltetrazol-1-yl)-5-(4-fluorophenyl)-N-(3-methyl-, 1-dioxothiolan-3-yl)-benzamide]
15 | 650 | 75 | Cc1ccc(-c2cc(C(=O)NC(C)(C)CO)cc(-n3nnnc3C(C)C)c2)cc1 [Example 14, N-(1-Hydroxy-2-methylpropan-2-yl)-3-(4-methylphenyl)-5-(5-propan-2-yltetrazol-1-yl)-benzamide]
16 | 260 | 73 | CC(C)c1nnnn1-c1cc(C(=O)NC2(C)CCS(=O)(=O)C2)cc(-c2ccc(Cl)cc2)c1 (racemic) [Example 45, (RS)-3-(4-Chlorophenyl)-N-(3-methyl-1,1-dioxothiolan-3-yl)-5-(5-propan-2-yltetrazol-1-yl)benzamide]
17 | 480 | 78 | CCC(C)(C)NC(=O)c1cc(-c2ccc(Cl)cc2)cc(-n2nnnc2C2CC2)c1 [Example 55, 3-(4-Chlorophenyl)-5-(5-cyclopropyltetrazol-1-yl)-N-(2-methylbutan-2-yl)-benzamide]
18 | 430 | 175 | CC(C)(NC(=O)c1cc(-c2ccc(F)cc2)cc(-n2cnnn2)c1)C(F)(F)F [Example 18, 3-(4-Fluorophenyl)-5-(tetrazol-1-yl)-N-(1,1,1-trifluoro-2-methylpropan-2-yl)-benzamide]
19 | 180 | 90 | CC(C)(C)NC(=O)c1cc(-c2ccc(Cl)cc2)cc(-n2nnnc2C2CC2)c1 [Example 56, N-tert-Butyl-3-(4-chlorophenyl)-5-(5-cyclopropyltetrazol-1-yl)-benzamide]
20 | 530 | 106.5 | CC(C)(C)c1nnnn1-c1cc(C(=O)NC(C)(C)C2CC2)cc(-c2ccc(Cl)c(F)c2)c1 [Example 112, 3-(5-tert-Butyltetrazol-1-yl)-5-(4-chloro-3-fluorophenyl)-N-(2-cyclopropylpropan-2-yl)-benzamide]
21 | 280 | 115 | CC(C)(C)NC(=O)c1cc(-c2ccc(C3CC3)cc2)cc(-n2nnnc2C(C)(C)C)c1 [Example 107, N-tert-Butyl-3-(5-tert-butyltetrazol-1-yl)-5-(4-cyclopropylphenyl)-benzamide]
22 | 190 | 89 | CCC(C)(C)NC(=O)c1cc(-c2ccc(C(F)(F)F)cc2)cc(-n2nnnc2C(C)C)c1 [Example 46, N-(2-Methylbutan-2-yl)-3-(5-propan-2-yltetrazol-1-yl)-5-[4-(trifluoro-methyl)-phenyl]-benzamide]
23 | 200 | 189 | CCC(C)(C)NC(=O)c1cc(-c2ccc(F)c(F)c2)cc(-n2cnnn2)c1 [Example 39, 3-(3,4-Difluorophenyl)-N-(2-methylbutan-2-yl)-5-(tetrazol-1-yl)-benzamide]
24 | 200 | 166.5 | CC(C)(NC(=O)c1cc(-c2ccc(Cl)cc2)cc(-n2nnnc2C(F)(F)F)c1)C(F)(F)F [Example 79, 3-(4-Chlorophenyl)-N-(1,1,1-trifluoro-2-methylpropan-2-yl)-5-[5-(trifluoromethyl)tetrazol-1-yl]-benzamide]
